Columns and labels:
Format in all cases: cell-based
[1] = tested on: parental and REV7 KO 22Rv1 cells; assay: Colony formation assay, 22Rv1; conditions: REV7 KO vs REV7 wild type parental 22Rv1 cells, 2 weeks
Description: (§1) 1 mL of cells were seeded per well in a 24-well plate in triplicate and incubated overnight at 37° C. Cells were treated with a seven-point dose response curve with a one-in-three serial dilution of compound for the timepoints listed in Table 5. For MDA-MB-436 cells media was replenished every five days.
(§2) Cells were fixed with 70% ethanol for 20 minutes at room temperature with shaking. Cells were then stained with 0.04% Crystal Violet (Sigma Aldrich) for 20 minutes at room temperature with shaking. Cells were washed 6 times with water and air-dried overnight.
(§3) Plates were imaged using a Gelcount (Oxford Optronix), and colonies were counted using parameters optimized for each cell line. 22Rv1 viability curves were generated from the colony counts alone. MDA-MB-436 and HCC1935 viability curves were generated from solubilized colonies. Colonies were solubilized using 10% acetic acid (VWR) for 30 minutes, absorbance at 595 nm was read using the Clariostar plate reader (BMG Labtech), and blank correction was applied. Relative Survival was calculated by normalization of compound treated wells to DMSO treated wells.
The effect of a DNA polymerase theta (Polθ) inhibitor (Compound A) or the PARP inhibitor olaparib on the survival of parental (REV7 wild type) or REV7 deleted (REV7 KO) 22Rv1 cells was investigated in colony formation assays (CFA—see protocol above). […]

[2] = tested on: Shieldin-defective, PARPi-resistant SUM149 cells; assay: Re-sensitisation to olaparib
Description: For measurement of re-sensitisation to Olaparib, exponentially growing cells were exposed to Compound A for 48 hours. After, cells were seeded in 96-well plates at a concentration of 1000-2000 cells per well. 24 hours post-seeding, Olaparib treatment was initiated and cells were continuously exposed to the drug with media and drug replenished every 72 hours. After 10 days, cell viability was estimated using Cell-Titre Glo (Promega). SFs were calculated and drug sensitivity curves plotted as previously described (Farmer et al Nature (2005) 434, 917-921).
Briefly, parental SUM149 cells or derivatives with either BRCA1 restored or with genetic deletion of either C20orf196 or 53BP1 were treated with Compound A in a tissue culture flask for 48 hours. The cells were then washed before seeding at low density in 96 well plates. 24 hours post seeding, cells were incubated with either olaparib or DMSO for a further 10 days. The relative survival normalised to untreated cells was measured using Cell-Titre Glo.

[3] = tested on: parental and SHLD2 KO MDA-MB-436 cells; assay: Colony formation assay, MDA-MB-436; conditions: SHLD2 KO vs parental MDA-MB-436 cells, colony solubilization protocol
Description: as §1, §2
as §3, with “22Rv1 viability curves were generated from the colony counts alone. MDA-MB-436 and HCC1935 viability curves were generated from solubilized colonies.” left out
The effect of a DNA polymerase theta (Polθ) inhibitor (Compound A) and the PARP inhibitor olaparib on the survival of parental and SHLD2 deleted (SHLD2 KO) MDA-MB-436 cells was investigated by colony formation assay. Briefly, each population was seeded at low density, incubated with different concentrations of the compound and the relative survival normalized to untreated cells was measured with the colony solubilization protocol.

[4] = tested on: CAL51 breast cancer cells; assay: siRNA screen for Compound A sensitivity in CAL51
From the text: An siRNA library was purchased from Dharmacon. Each well contained a SMART pool of four distinct siRNA species targeting different sequences of the target transcript, as well as individual siRNA targeting components of the Shieldin complex. Each plate was supplemented with negative siCONTROL (12 wells; Dharmacon) and positive control (four wells, siPLK1, Dharmacon). RNAi screening conditions were optimized and raw CellTitre-Glo (Promega) luminescent viability readings were generated as previously described (Lord et al DNA Repair (2008) 7, 2010-2019). Compound A or vehicle (DMSO) was added 24 h after transfection at 5 μM (CAL51) or 10 μM (RPE TP53-/-BRCA1-defective) concentration in media and cells were exposed for 5 days. Statistical analysis of the siRNA screen was performed as described elsewhere (Lord et al DNA Repair (2008) 7, 2010-2019). In brief, luminescence values from CellTitre-Glo assays in Compound A and DMSO exposed cells were log2 transformed and then normalized to plate median (PM) effects. Drug Effect (DE) scores were calculated from PM normalized data using the equation: DE=(log2 PM normalized signal of siRNA in the presence of Compound A)—(log2 PM normalized signal of siRNA in the absence of Compound A). DE values were then Z-score standardized according to screen median and median absolute deviation values.
To discover genes that are synthetic lethal with Polθ inhibitors, an siRNA screen using 1280 siRNAs was performed using CAL51 breast cancer cells. The cells were transfected with siRNA SMARTPools in a 384 well plate arrayed format then, twenty-four hours later, exposed to either DMSO or Compound A. Cells were then continuously cultured in the presence of Compound A or DMSO for a further five days, at which point the viability of cells was measured using CellTitre-Glo reagent (a luminescence assay measuring cellular ATP levels). Luminescence values from each well of the 384 well plate were log2 transformed and then normalized to the median signal on each plate (to account for plate to plate variation). By comparing normalized values for each siRNA SMARTPool in DMSO and Compound A-exposed cells, the effect of each siRNA on Compound A sensitivity was calculated, being expressed as a Drug Effect (DE) Z score.

[5] = tested on: Parental and REV7 KO SUM149 cells; assay: Clonogenic survival assay (ICR), SUM149 REV7 KO clones; conditions: REV7 KO clones vs parental SUM149, 14 days
Description: Clonogenic survival assays were performed as previously described (Edwards et al Nature (2008) 451, 1111-1115; Farmer et al Nature (2005) 434, 917-921). For measurement of sensitivity to Compound A inhibitor, exponentially growing cells were seeded in six-well plates at a concentration of 1000-2000 cells per well. For Compound A, cells were continuously exposed to the drug with media and drug replaced every 72 h. After 14 days, cells were fixed and stained with sulphorhodamine-B (Sigma) and colonies were counted. SFs were calculated and drug sensitivity curves plotted as previously described (Farmer et al Nature (2005) 434, 917-921).
Parental or REV7 KO SUM149 cells were seeded into 6 well plates and incubated overnight. The cells were then treated with a serial dilution of Polθ inhibitor or olaparib for 14 days, fixed, and stained with sulphorhodamine B. The colonies in each well were counted and normalised survival data plotted to generate a dose-response curve.

Q: `Cc1cccc(N(C)C(=O)[C@@H]2[C@H](O)CCN2c2nc(C)cc(C(F)(F)F)c2C#N)c1` [Compound A, (2S,3R)-1-(3-cyano-6-methyl-4-(trifluoromethyl)pyridin-2-yl)-3-hydroxy-N-methyl-N-(m-tolyl)pyrrolidine-2-carboxamide] was tested. Which “sensitivity by relative survival (colonies)” value [1] did it give?
A: The value was “significantly more sensitive”.

Q: And the “sensitivity to olaparib after pre-treatment” value ([2]; Compound A 10 μM 48 hours then olaparib 1 μM 10 days, SUM149 C20orf196 and SUM149 53BP1 cells)?
A: The value was “induced sensitivity”.

Q: What about the “effect on survival of 48 hours treatment alone” value ([2]; Compound A 10 μM for 48 hours then DMSO, SUM149 cells and derivatives) of the same molecule?
A: The value was “no effect on survival”.

Q: What about the “sensitivity by relative survival” value [3] of the same molecule?
A: The value was “significantly more sensitive”.

Q: And the “Drug Effect (DE) Z-score” value ([4]; non-targeting siRNA Allstar control)?
A: Its value is 1.0.

Q: And the “Drug Effect (DE) Z-score” value ([4]; non-targeting siRNA siCON1)?
A: The value was 0.8.

Q: And the “Drug Effect (DE) Z-score” value ([4]; non-targeting siRNA siCON2)?
A: The value was 1.0.

Q: What about the “Drug Effect (DE) Z-score” value ([4]; siRNA pool targeting REV7, 5 μM, 5 days, median of triplicate screens) of the same molecule?
A: The value was −2.88.

Q: And the “sensitivity by reduction in number of colonies” value [5]?
A: Its value is “increased sensitivity”.

— US20220387544A1, “NOVEL THERAPEUTIC USE” (Artios Pharma Limited, priority 2019, published 2022)
